target: Tyrosine-protein kinase SYK (Homo sapiens, UniProt P43405); experiment: Inhibition of human recombinant SYK by HTRF assay

| IC50 | Compound |
| --- | --- |
| < 1.5 nM | NC(=O)c1ccc(N[C@@H]2CCCC[C@@H]2N)cc1Nc1cccc(-c2ccccc2)n1 |
| < 1.5 nM | COc1ccc(-c2cccc(Nc3cc(N[C@@H]4CCCC[C@@H]4N)ccc3C(N)=O)n2)cc1 |
| < 1.5 nM | NC(=O)c1ccc(N[C@@H]2CCCC[C@@H]2N)cc1Nc1cccc(-c2ccc(F)c(F)c2)n1 |
| < 1.5 nM | NC(=O)c1ccc(N[C@@H]2CCCC[C@@H]2N)cc1Nc1cccc(-c2cccc(F)c2)n1 |
| > 1.5 nM | Cc1cccc(Nc2cc(N[C@@H]3CCCC[C@@H]3N)ccc2C(N)=O)n1 |
